# Measurements taken from ChEMBL document CHEMBL4316596, “Antimicrobial Peptides with High Proteolytic Resistance for Combating Gram-Negative Bacteria” (J Med Chem, 2019).
# How the values were obtained:
# [1] = system: Escherichia coli; experiment: Antimicrobial activity against Escherichia coli ATCC 25922 after 24 hrs by NCCLS-protocol based assay; type: functional
# [2] = system: Escherichia coli; experiment: Antimicrobial activity against Escherichia coli UB1005 after 24 hrs by NCCLS-protocol based assay; type: functional
# [3] = system: Escherichia coli; experiment: Antimicrobial activity against Escherichia coli 078 after 24 hrs by NCCLS-protocol based assay; type: functional
# [4] = system: Escherichia coli; experiment: Antimicrobial activity against Escherichia coli K88 after 24 hrs by NCCLS-protocol based assay; type: functional
# [5] = system: Escherichia coli; experiment: Antimicrobial activity against Escherichia coli K99 after 24 hrs by NCCLS-protocol based assay; type: functional
# [6] = system: Pseudomonas aeruginosa; experiment: Antimicrobial activity against Pseudomonas aeruginosa ATCC 27853 after 24 hrs by NCCLS-protocol based assay; type: functional
# [7] = system: Pseudomonas aeruginosa; experiment: Antimicrobial activity against Pseudomonas aeruginosa PAO1 after 24 hrs by NCCLS-protocol based assay; type: functional
# [8] = system: Pseudomonas aeruginosa; experiment: Antimicrobial activity against Pseudomonas aeruginosa CICC 21630 clinical isolates after 24 hrs by NCCLS-protocol based assay; type: functional
# [9] = system: Pseudomonas aeruginosa; experiment: Antimicrobial activity against Pseudomonas aeruginosa 26305 clinical isolates after 24 hrs by NCCLS-protocol based assay; type: functional
# [10] = system: Pseudomonas aeruginosa; experiment: Antimicrobial activity against Pseudomonas aeruginosa CICC 21625 clinical isolates after 24 hrs by NCCLS-protocol based assay; type: functional
# [11] = system: Pseudomonas aeruginosa; experiment: Antimicrobial activity against Pseudomonas aeruginosa 25349 clinical isolates after 24 hrs by NCCLS-protocol based assay; type: functional
# [12] = system: Salmonella typhimurium; experiment: Antimicrobial activity against Salmonella typhimurium ATCC 14028 after 24 hrs by NCCLS-protocol based assay; type: functional, Salmonella enterica subsp. enterica serovar Typhimurium
# [13] = system: Salmonella typhimurium; experiment: Antimicrobial activity against Salmonella typhimurium C7731 after 24 hrs by NCCLS-protocol based assay; type: functional, Salmonella enterica subsp. enterica serovar Typhimurium
# [14] = (§1) Antimicrobial activity against Salmonella pullorum C7913 after 24 hrs by NCCLS-protocol based assay; type: functional, Salmonella enterica subsp. enterica serovar Pullorum; settings: Salmonella enterica, C7913, 24 h
# [15] = system: Acinetobacter baumannii; experiment: Antimicrobial activity against Acinetobacter baumannii after 24 hrs by NCCLS-protocol based assay; type: functional
# [16] = system: Klebsiella pneumoniae; experiment: Antimicrobial activity against Klebsiella pneumoniae after 24 hrs by NCCLS-protocol based assay; type: functional
# [17] = system: Escherichia coli; experiment: Bactericidal activity against Escherichia coli ATCC 25922 incubated for 4 hrs followed by culture spread on agar plates and cultured overnight; type: functional
# [18] = system: Escherichia coli; experiment: Bactericidal activity against Escherichia coli ATCC 25922 incubated for 4 hrs followed by culture spread on agar plates and cultured overnight in presence of NaCl; type: functional; settings: ATCC 25922, 4 h, read-out: MBC>99.9
# [19] = system: Escherichia coli; experiment: Bactericidal activity against Escherichia coli ATCC 25922 incubated for 4 hrs followed by culture spread on agar plates and cultured overnight in presence of KCl; type: functional; settings: ATCC 25922, 4 h, read-out: MBC>99.9
# [20] = system: Escherichia coli; experiment: Bactericidal activity against Escherichia coli ATCC 25922 incubated for 4 hrs followed by culture spread on agar plates and cultured overnight in presence of CaCl2; type: functional; settings: ATCC 25922, 4 h, read-out: MBC>99.9
# [21] = system: Escherichia coli; experiment: Bactericidal activity against Escherichia coli ATCC 25922 incubated for 4 hrs followed by culture spread on agar plates and cultured overnight in presence of ZnCl2; type: functional; settings: ATCC 25922, 4 h, read-out: MBC>99.9
# [22] = system: Escherichia coli; experiment: Bactericidal activity against Escherichia coli ATCC 25922 incubated for 4 hrs followed by culture spread on agar plates and cultured overnight in presence of FeCl3; type: functional; settings: ATCC 25922, 4 h, read-out: MBC>99.9
# [23] = system: Escherichia coli; experiment: Bactericidal activity against Escherichia coli ATCC 25922 incubated for 4 hrs followed by culture spread on agar plates and cultured overnight in presence of NH4Cl; type: functional; settings: ATCC 25922, 4 h, read-out: MBC>99.9
# [24] = system: Escherichia coli; experiment: Bactericidal activity against Escherichia coli ATCC 25922 incubated for 4 hrs followed by culture spread on agar plates and cultured overnight in presence of MgCl2; type: functional; settings: ATCC 25922, 4 h, read-out: MBC>99.9
# [25] = system: Escherichia coli; experiment: Bactericidal activity against Escherichia coli ATCC 25922 incubated for 4 hrs followed by culture spread on agar plates and cultured overnight in presence of 50% serum albumin; type: functional; settings: ATCC 25922, 4 h, read-out: MBC>99.9
# [26] = system: Escherichia coli; experiment: Bactericidal activity against Escherichia coli ATCC 25922 incubated for 4 hrs followed by culture spread on agar plates and cultured overnight in presence of 25% serum albumin; type: functional; settings: ATCC 25922, 4 h, read-out: MBC>99.9
# [27] = system: Escherichia coli; experiment: Bactericidal activity against Escherichia coli ATCC 25922 incubated for 4 hrs followed by culture spread on agar plates and cultured overnight in presence of 12.5% serum albumin; type: functional; settings: ATCC 25922, 4 h, read-out: MBC>99.9
# [28] = system: Escherichia coli; experiment: Bactericidal activity against Escherichia coli UB1005 incubated for 4 hrs followed by culture spread on agar plates and cultured overnight; type: functional
# [29] = system: Escherichia coli; experiment: Bactericidal activity against Escherichia coli 078 incubated for 4 hrs followed by culture spread on agar plates and cultured overnight; type: functional
# [30] = system: Escherichia coli; experiment: Bactericidal activity against Escherichia coli K88 incubated for 4 hrs followed by culture spread on agar plates and cultured overnight; type: functional
# [31] = system: Escherichia coli; experiment: Bactericidal activity against Escherichia coli K99 incubated for 4 hrs followed by culture spread on agar plates and cultured overnight; type: functional
# [32] = system: Pseudomonas aeruginosa; experiment: Bactericidal activity against Pseudomonas aeruginosa ATCC 27853 incubated for 4 hrs followed by culture spread on agar plates and cultured overnight; type: functional
# [33] = system: Pseudomonas aeruginosa; experiment: Bactericidal activity against Pseudomonas aeruginosa PAO1 incubated for 4 hrs followed by culture spread on agar plates and cultured overnight; type: functional
# [34] = system: Pseudomonas aeruginosa; experiment: Bactericidal activity against Pseudomonas aeruginosa CICC 21630 clinical isolates incubated for 4 hrs followed by culture spread on agar plates and cultured overnight; type: functional
# [35] = system: Pseudomonas aeruginosa; experiment: Bactericidal activity against Pseudomonas aeruginosa 26305 clinical isolates incubated for 4 hrs followed by culture spread on agar plates and cultured overnight; type: functional
# [36] = system: Pseudomonas aeruginosa; experiment: Bactericidal activity against Pseudomonas aeruginosa CICC 21625 clinical isolates incubated for 4 hrs followed by culture spread on agar plates and cultured overnight; type: functional
# [37] = system: Pseudomonas aeruginosa; experiment: Bactericidal activity against Pseudomonas aeruginosa 25349 clinical isolates incubated for 4 hrs followed by culture spread on agar plates and cultured overnight; type: functional
# [38] = system: Salmonella typhimurium; experiment: Bactericidal activity against Salmonella typhimurium ATCC 14028 incubated for 4 hrs followed by culture spread on agar plates and cultured overnight; type: functional, Salmonella enterica subsp. enterica serovar Typhimurium
# [39] = system: Salmonella typhimurium; experiment: Bactericidal activity against Salmonella typhimurium C7731 incubated for 4 hrs followed by culture spread on agar plates and cultured overnight; type: functional, Salmonella enterica subsp. enterica serovar Typhimurium
# [40] = (§2) Bactericidal activity against Salmonella pullorum C7913 incubated for 4 hrs followed by culture spread on agar plates and cultured overnight; type: functional, Salmonella enterica subsp. enterica serovar Pullorum; settings: Salmonella enterica, C7913, 4 h; read-out: MBC>99.9
# [41] = system: Acinetobacter baumannii; experiment: Bactericidal activity against Acinetobacter baumannii incubated for 4 hrs followed by culture spread on agar plates and cultured overnight; type: functional
# [42] = system: Klebsiella pneumoniae; experiment: Bactericidal activity against Klebsiella pneumoniae incubated for 4 hrs followed by culture spread on agar plates and cultured overnight; type: functional
# [43] = system: Salmonella enterica subsp. enterica serovar Pullorum; experiment: as §1; type: functional
# [44] = system: Pseudomonas aeruginosa; experiment: Ratio of MBC against Pseudomonas aeruginosa ATCC 27853 after 26 to 60 passages to MBC against Pseudomonas aeruginosa ATCC 27853; type: functional, organism-based
# [45] = system: Salmonella enterica subsp. enterica serovar Pullorum; experiment: as §2; type: functional
# [46] = Salmonella enterica subsp. enterica serovar Typhimurium
substance,measurement,setting,value
H-LKPLLKPLLKPLLKPLLKPLLKPL-NH2,MIC95,"[1]; ATCC 25922, 24 h",1 µM
same,MIC95,"[2]; UB1005, 24 h",2 µM
same,MIC95,"[3]; Escherichia coli, 078, 24 h",2 µM
same,MIC95,"[4]; K88, 24 h",1 µM
same,MIC95,"[5]; K99, 24 h",2 µM
same,MIC95,"[6]; ATCC 27853, 24 h",4 µM
same,MIC95,"[7]; PAO1, 24 h",4 µM
same,MIC95,"[8]; CICC 21630, 24 h",32 µM
same,MIC95,"[9]; Pseudomonas aeruginosa, 26305, 24 h",64 µM
same,MIC95,"[10]; CICC 21625, 24 h",64 µM
same,MIC95,"[11]; Pseudomonas aeruginosa, 25349, 24 h",32 µM
same,MIC95,"[12]; Salmonella enterica, ATCC 14028, 24 h",4 µM
same,MIC95,"[13]; Salmonella enterica, C7731, 24 h",8 µM
same,MIC95,[14],4 µM
same,MIC95,[15],4 µM
same,MIC95,[16],8 µM
same,MBC,"[17]; ATCC 25922, 4 h, read-out: MBC>99.9",2 µM
same,MBC,[18],16 µM
same,MBC,[19],1 µM
same,MBC,[20],> 128 µM
same,MBC,[21],2 µM
same,MBC,[22],4 µM
same,MBC,[23],4 µM
same,MBC,[24],16 µM
same,MBC,[25],> 128 µM
same,MBC,[26],> 128 µM
same,MBC,[27],8 µM
same,MBC,"[28]; UB1005, 4 h, read-out: MBC>99.9",4 µM
same,MBC,"[29]; Escherichia coli, 078, 4 h, read-out: MBC>99.9",2 µM
same,MBC,"[30]; K88, 4 h, read-out: MBC>99.9",2 µM
same,MBC,"[31]; K99, 4 h, read-out: MBC>99.9",2 µM
same,MBC,"[32]; ATCC 27853, 4 h, read-out: MBC>99.9",4 µM
same,MBC,"[33]; PAO1, 4 h, read-out: MBC>99.9",8 µM
same,MBC,"[34]; CICC 21630, 4 h, read-out: MBC>99.9",64 µM
same,MBC,"[35]; Pseudomonas aeruginosa, 26305, 4 h, read-out: MBC>99.9",> 64 µM
same,MBC,"[36]; CICC 21625, 4 h, read-out: MBC>99.9",64 µM
same,MBC,"[37]; Pseudomonas aeruginosa, 25349, 4 h, read-out: MBC>99.9",32 µM
same,MBC,"[38]; Salmonella enterica, ATCC 14028, 4 h, read-out: MBC>99.9",8 µM
same,MBC,"[39]; Salmonella enterica, C7731, 4 h, read-out: MBC>99.9",8 µM
same,MBC,[40],8 µM
same,MBC,[41]; read-out: MBC>99.9,4 µM
same,MBC,[42]; read-out: MBC>99.9,8 µM
GENTAMICIN,MIC>95,[1],1 µM
same,MIC>95,[2],0.25 µM
same,MIC>95,[3],0.25 µM
same,MIC>95,[4],0.125 µM
same,MIC>95,[5],0.25 µM
same,MIC>95,[6],1 µM
same,MIC>95,[7],2 µM
same,MIC>95,[8],1 µM
same,MIC>95,[9],> 64 µM
same,MIC>95,[10],1 µM
same,MIC>95,[11],2 µM
same,MIC>95,[12]; [46],1 µM
same,MIC>95,[13]; [46],1 µM
same,MIC>95,[43],1 µM
same,MIC>95,[15],0.25 µM
same,MIC>95,[16],0.5 µM
same,Ratio,[44],32
same,MBC>99.9,[17],2 µM
same,MBC>99.9,[28],0.25 µM
same,MBC>99.9,[29],0.5 µM
same,MBC>99.9,[30],0.25 µM
same,MBC>99.9,[31],0.25 µM
same,MBC>99.9,[32],1 µM
same,MBC>99.9,[33],2 µM
same,MBC>99.9,[34],2 µM
same,MBC>99.9,[35],> 64 µM
same,MBC>99.9,[36],1 µM
same,MBC>99.9,[37],2 µM
same,MBC>99.9,[38]; [46],2 µM
same,MBC>99.9,[39]; [46],2 µM
same,MBC>99.9,[45],1 µM
same,MBC>99.9,[41],0.5 µM
same,MBC>99.9,[42],0.5 µM
